Like-named read-outs stand apart in the source and are kept apart here.
Assays:
Assay type in all cases: biochemical
WT EGFR kinase domain = WT EGFR kinase domain (Homo sapiens (Human), UniProt P00533); test: EGFR enzymatic assay, TR-FRET, WT EGFR
[1] = molecular target: EGFR T790M/L858R kinase domain (Homo sapiens (Human), UniProt P00533, L858R/T790M); test: EGFR enzymatic assay, TR-FRET, EGFR T790M/L858R
wild type B-Raf = wild type B-Raf (Homo sapiens (Human), UniProt P15056); test: WT BRaf IC50 assay, TR-FRET
Sequence of wild type B-Raf (P15056 whole entry): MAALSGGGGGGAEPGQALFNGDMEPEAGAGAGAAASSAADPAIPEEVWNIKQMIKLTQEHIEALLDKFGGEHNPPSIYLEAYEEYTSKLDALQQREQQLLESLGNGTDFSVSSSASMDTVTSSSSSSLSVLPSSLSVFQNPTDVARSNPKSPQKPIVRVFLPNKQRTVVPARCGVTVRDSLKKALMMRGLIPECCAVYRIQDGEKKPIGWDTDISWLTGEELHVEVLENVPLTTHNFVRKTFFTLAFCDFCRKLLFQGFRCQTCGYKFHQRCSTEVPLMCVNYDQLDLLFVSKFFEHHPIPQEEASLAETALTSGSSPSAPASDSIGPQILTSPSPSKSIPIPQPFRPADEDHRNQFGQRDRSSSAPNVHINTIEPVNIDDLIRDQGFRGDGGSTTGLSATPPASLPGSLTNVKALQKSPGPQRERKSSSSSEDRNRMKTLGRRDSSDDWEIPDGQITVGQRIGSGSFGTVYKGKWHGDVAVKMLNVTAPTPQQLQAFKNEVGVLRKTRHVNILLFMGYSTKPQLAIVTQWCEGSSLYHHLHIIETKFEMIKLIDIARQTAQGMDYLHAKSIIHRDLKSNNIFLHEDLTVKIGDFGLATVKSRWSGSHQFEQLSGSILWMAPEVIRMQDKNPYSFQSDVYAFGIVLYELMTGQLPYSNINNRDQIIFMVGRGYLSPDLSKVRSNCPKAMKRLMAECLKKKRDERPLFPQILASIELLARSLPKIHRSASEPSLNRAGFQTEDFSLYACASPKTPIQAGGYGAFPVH
Experimental: WT BRaf IC50 Assay Protocol
Compounds disclosed herein were tested against wild type B-Raf (PV3848, from Invitrogen) in a time-resolved fluorescence energy transfer assay. […] The enzyme was incubated with the compounds disclosed herein at room temperature for 120 minutes and the reactions were initiated by the addition of ATP and GST-MEK1. After incubating at room temperature for 60 minutes, an equal volume of stop buffer containing 25 mM Tris pH7.4, 400 mM KF, 50 mM EDTA, 0.1% BSA, 0.01% Triton X-100, 1 test of Eu3+Cryptate-conjugated rabbit polyclonal antibody anti-Phospho MEK1/2 (Ser217/221) and 1 test of d2-conjugated mouse monoclonal antibody anti-glutathione S-transferase was added to stop the reactions. Plates were sealed and incubated at room temperature for 1.5 hours, and then the TR-FRET signals were read on BMG PHERAstar FS instrument. The IC50 for each compound was calculated by non linear regression by Graphpad Prism software.

EGFR L858R kinase domain = EGFR L858R kinase domain (Homo sapiens (Human), UniProt P00533, L858R); test: EGFR enzymatic assay, TR-FRET, EGFR L858R
Sequence of EGFR L858R kinase domain (P00533 669-1210 L858R): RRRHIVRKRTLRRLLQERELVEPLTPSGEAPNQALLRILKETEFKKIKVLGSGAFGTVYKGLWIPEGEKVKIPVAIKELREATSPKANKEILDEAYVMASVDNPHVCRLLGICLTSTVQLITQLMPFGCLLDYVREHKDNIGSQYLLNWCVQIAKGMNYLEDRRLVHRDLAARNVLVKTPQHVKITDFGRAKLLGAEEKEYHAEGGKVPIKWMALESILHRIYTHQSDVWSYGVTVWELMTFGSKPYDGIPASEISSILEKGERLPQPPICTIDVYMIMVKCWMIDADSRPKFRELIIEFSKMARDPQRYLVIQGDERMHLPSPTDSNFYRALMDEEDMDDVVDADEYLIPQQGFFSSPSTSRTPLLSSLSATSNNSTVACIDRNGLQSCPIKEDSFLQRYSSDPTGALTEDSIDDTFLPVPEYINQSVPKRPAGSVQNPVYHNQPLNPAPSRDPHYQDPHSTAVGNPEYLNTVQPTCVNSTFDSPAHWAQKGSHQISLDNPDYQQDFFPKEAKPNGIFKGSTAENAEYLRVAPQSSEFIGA

C-Raf (Y340D/Y341D) = C-Raf (Y340D/Y341D) (Homo sapiens (Human), UniProt P04049, Y340D/Y341D); test: Raf IC50 assay, TR-FRET, C-Raf (Y340D/Y341D); conditions: 0.1 mM ATP
Sequence of C-Raf (Y340D/Y341D) (P04049 whole entry Y340D/Y341D): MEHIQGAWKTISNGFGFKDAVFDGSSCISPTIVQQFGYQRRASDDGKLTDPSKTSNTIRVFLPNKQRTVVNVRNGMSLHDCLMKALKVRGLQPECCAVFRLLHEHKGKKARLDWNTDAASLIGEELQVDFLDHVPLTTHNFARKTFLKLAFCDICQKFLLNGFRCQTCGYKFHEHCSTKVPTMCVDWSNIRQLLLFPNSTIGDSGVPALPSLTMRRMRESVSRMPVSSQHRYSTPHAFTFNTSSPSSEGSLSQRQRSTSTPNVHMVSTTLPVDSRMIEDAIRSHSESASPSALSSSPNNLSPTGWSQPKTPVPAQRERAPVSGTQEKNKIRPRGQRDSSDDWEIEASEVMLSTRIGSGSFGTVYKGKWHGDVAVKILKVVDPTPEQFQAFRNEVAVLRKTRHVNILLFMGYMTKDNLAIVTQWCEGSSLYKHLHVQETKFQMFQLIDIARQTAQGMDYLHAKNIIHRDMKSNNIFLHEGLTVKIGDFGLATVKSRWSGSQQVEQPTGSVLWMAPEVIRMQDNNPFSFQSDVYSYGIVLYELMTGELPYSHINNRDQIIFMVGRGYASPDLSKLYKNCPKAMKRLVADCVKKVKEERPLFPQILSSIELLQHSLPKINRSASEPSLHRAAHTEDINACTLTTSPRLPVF
Experimental: Compounds disclosed herein were tested against B-Raf (V600E) (PV3849, from Invitrogen) or C-Raf (Y340D/Y341D) (PV3805, from Invitrogen) in a time-resolved fluorescence energy transfer assay. The assay was carried out in reactions (10 μL) containing 0.0625 nM B-Raf or 0.5 nM C-Raf, 25 mM Tris pH7.4, 10 mM MgCl2, 0.5 mM EGTA, 0.5 mM Na3VO4, 5 mM beta-glycerophosphate, 0.01% Triton X-100, 2.5 mM DTT, 0.1% BSA, 0.1 mM ATP, 13.7 nM GST-tagged MEK1 (Full-length protein with K97R mutation, recombinant protein purified from bacterial expression system) and 0-5 μM compounds disclosed herein (final concentration of 1% DMSO). The enzyme was incubated with the compounds disclosed herein at room temperature for 60 minutes and the reactions were initiated by the addition of ATP and GST-MEK1. After reaction at room temperature for 60 minutes, an equal volume of stop/detection solution was added according to the manufacture's instruction (CisBio Bioassays). The stop/detection solution contained Eu^3+ cryptate-conjugated anti-phospho MEK1/2 (Ser217/221) rabbit polyclonal antibody and d2-conjugated anti-GST mouse monoclonal antibody in buffer containing 25 mM Tris pH7.4, 400 mM KF, 50 mM EDTA, 0.01% BSA and 0.01% Triton X-100. Plates were sealed and incubated at room temperature for 2 hours, and the TR-FRET signals (ratio of fluorescence emission at 665 nm over emission at 620 nm with excitation at 337 nm wavelength) were recorded on a PHERAstar FS plate reader (BMG Labtech). Phosphorylation of MEK1 led to the binding of anti-phospho-MEK1/2 antibody to GST-MEK1 protein that place fluorescent donor (Eu^3+ crypate) in close proximity to the accepter d2 on the anti-GST antibody, thus resulting in a high degree of fluorescence resonance energy transfer from the donor fluorophore (at 620 nm) to the acceptor fluorophore (at 665 nm). […] The IC50 for each compound was derived from fitting the dose-response % inhibition data to the four-parameter logistic model by Graphpad Prism software.

B-Raf (V600E) = B-Raf (V600E) (Homo sapiens (Human), UniProt P15056, V600E); test: Raf IC50 assay, TR-FRET, B-Raf (V600E); conditions: 0.1 mM ATP; read-out: IC50 BRAF-V600E
Sequence of B-Raf (V600E) (P15056 whole entry V600E): as the sequence (P15056 whole entry) above, with V600E counted along it

[2] = Km ATP ([…] ATP), read-out: IC50 Braf-WT Km ATP

Sequence of EGFR T790M/L858R kinase domain (P00533 669-1210 T790M/L858R): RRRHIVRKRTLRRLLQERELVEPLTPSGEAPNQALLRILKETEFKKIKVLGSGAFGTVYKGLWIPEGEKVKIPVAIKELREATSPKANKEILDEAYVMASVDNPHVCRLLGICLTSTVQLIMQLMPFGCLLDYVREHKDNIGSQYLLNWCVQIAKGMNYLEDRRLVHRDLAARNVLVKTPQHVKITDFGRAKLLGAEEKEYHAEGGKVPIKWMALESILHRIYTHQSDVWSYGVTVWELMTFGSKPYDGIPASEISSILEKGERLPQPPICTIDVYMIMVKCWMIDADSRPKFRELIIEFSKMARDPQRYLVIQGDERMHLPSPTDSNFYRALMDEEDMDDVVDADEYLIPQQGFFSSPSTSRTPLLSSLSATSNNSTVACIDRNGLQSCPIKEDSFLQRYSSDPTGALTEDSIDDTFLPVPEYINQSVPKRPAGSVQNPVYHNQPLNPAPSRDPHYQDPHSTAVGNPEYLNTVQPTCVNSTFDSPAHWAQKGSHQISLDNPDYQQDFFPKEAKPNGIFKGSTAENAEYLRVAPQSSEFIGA
Sequence of WT EGFR kinase domain (P00533 669-1210): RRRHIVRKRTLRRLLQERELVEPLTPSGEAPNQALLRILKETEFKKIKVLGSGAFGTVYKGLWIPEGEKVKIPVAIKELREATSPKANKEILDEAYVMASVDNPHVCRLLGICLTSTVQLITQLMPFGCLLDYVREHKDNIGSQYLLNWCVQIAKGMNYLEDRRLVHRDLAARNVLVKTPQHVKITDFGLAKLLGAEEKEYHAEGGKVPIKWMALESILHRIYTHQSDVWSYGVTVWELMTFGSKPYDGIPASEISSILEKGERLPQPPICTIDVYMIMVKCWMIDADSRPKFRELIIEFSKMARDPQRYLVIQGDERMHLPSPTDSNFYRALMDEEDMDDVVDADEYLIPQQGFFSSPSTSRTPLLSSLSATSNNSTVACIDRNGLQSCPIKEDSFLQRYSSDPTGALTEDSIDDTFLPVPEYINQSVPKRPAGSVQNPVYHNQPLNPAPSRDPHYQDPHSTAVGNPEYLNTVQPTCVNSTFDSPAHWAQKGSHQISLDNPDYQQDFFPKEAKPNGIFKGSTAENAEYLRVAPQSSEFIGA

| IC50 (WT EGFR kinase domain) [nM] | IC50 [1] [nM] | IC50 (wild type B-Raf; IC50 Braf-WT […] ATP, […] ATP) [nM] | IC50 (wild type B-Raf; [2]) [nM] | IC50 (EGFR L858R kinase domain) [nM] | IC50 (C-Raf (Y340D/Y341D)) [nM] | IC50 (B-Raf (V600E)) [nM] | SMILES |
| --- | --- | --- | --- | --- | --- | --- | --- |
| 0.67 | 0.21 | 33 | 9.4 | 0.16 | 1.3 | 9 | O=C1CCc2c(Oc3ccc4c(c3)[C@H]3[C@H](NC(=O)c5ccc(CN6CCN7CCC[C@@H]7C6)c(C(F)(F)F)c5)[C@H]3O4)ccnc2N1 [Compound 1.12] |
| 1.5 | 1.3 | – | 21 | 0.47 | 2.5 | 13 | CN(C)[C@H]1CCCN(Cc2ccc(C(=O)N[C@@H]3[C@H]4Oc5ccc(Oc6ccnc7c6CCC(=O)N7)cc5[C@@H]34)cc2C(F)(F)F)C1 [Compound 1.32] |
| 5.1 | 38 | – | 13 | 4.6 | 2.6 | 9.5 | CN1CCN(c2ccc(C(=O)N[C@@H]3[C@H]4Oc5ccc(Oc6ccnc7c6CCC(=O)N7)cc5[C@@H]34)cc2C(F)(F)F)CC1 [Compound 1.49] |
| 0.61 | 0.3 | – | 9.1 | 0.14 | 1.1 | 6.2 | C[C@H]1CN(Cc2ccc(C(=O)N[C@@H]3[C@H]4Oc5ccc(Oc6ccnc7c6CCC(=O)N7)cc5[C@@H]34)cc2C(F)(F)F)CCN1 [Compound 1.29, 4-(((S)-3-methylpiperazin-1-yl)methyl)-N-((1S,1aS,6bS)-5-((7-oxo-5,6,7,8-tetrahydro-1,8-naphthyridin-4-yl)oxy)-1a,6b-dihydro-1H-cyclopropa[b]benzofuran-1-yl)-3-(trifluoromethyl)benzamide] |
| 70 | 504 | 380 | 96 | 100 | 18 | 41 | O=C1CCc2c(Oc3ccc4c(c3)[C@H]3[C@H](NC(=O)c5ccc(CN6CCCCC6)c(C(F)(F)F)c5)[C@H]3O4)ccnc2N1 [Compound 1.8] |
| 1.4 | 6.6 | – | 8.5 | 0.39 | 1.2 | 10 | CN(C)[C@H]1CCCN(c2ccc(C(=O)N[C@@H]3[C@H]4Oc5ccc(Oc6ccnc7c6CCC(=O)N7)cc5[C@@H]34)cc2C(F)(F)F)C1 [Compound 1.47, 4-((S)-3-(dimethylamino)piperidin-1-yl)-N-((1S,1aS,6bS)-5-((7-oxo-5,6,7,8-tetrahydro-1,8-naphthyridin-4-yl)oxy)-1a,6b-dihydro-1H-cyclopropa[b]benzofuran-1-yl)-3-(trifluoromethyl)benzamide] |
| 0.7 | 0.088 | 36 | 14 | 0.079 | 1.9 | 7.1 | CN1CCN(Cc2ccc(C(=O)N[C@@H]3[C@H]4Oc5ccc(Oc6ccnc7c6CCC(=O)N7)cc5[C@@H]34)cc2C(F)(F)F)CC1 [Compound 1.3] |
| 1.3 | 0.54 | 120 | 63 | 0.31 | 3 | 27.2 | O=C1CCc2c(Oc3ccc4c(c3)[C@H]3[C@H](NC(=O)c5ccc(CN6CCNCC6)c(C(F)(F)F)c5)[C@H]3O4)ccnc2N1 [Compound 1.27, N-((1S,1aS,6bS)-5-((7-oxo-5,6,7,8-tetrahydro-1,8-naphthyridin-4-yl)oxy)-1a,6b-dihydro-1H-cyclopropa[b]benzofuran-1-yl)-4-(piperazin-1-ylmethyl)-3-(trifluoromethyl)benzamide] |

Further lines, the compound ahead of its results:

| SMILES | IC50 (WT EGFR kinase domain) [nM] | IC50 [1] [nM] | IC50 (wild type B-Raf; IC50 Braf-WT […] ATP, […] ATP) [nM] | IC50 (wild type B-Raf; [2]) [nM] | IC50 (EGFR L858R kinase domain) [nM] | IC50 (C-Raf (Y340D/Y341D)) [nM] | IC50 (B-Raf (V600E)) [nM] |
| --- | --- | --- | --- | --- | --- | --- | --- |
| O=C1CCc2c(Oc3ccc4c(c3)[C@H]3[C@H](NC(=O)c5ccc(C(F)(F)F)cc5)[C@H]3O4)ccnc2N1 [Compound 1.40] | 13 | 84 | – | 5.7 | 12 | 0.64 | 8.1 |
| O=C1CCc2c(Oc3ccc4c(c3)[C@H]3[C@H](NC(=O)c5cccc(F)c5)[C@H]3O4)ccnc2N1 [Compound 1.39] | 75 | 692 | – | 0.9 | 30 | 0.15 | 0.76 |
| O=C1CCc2c(Oc3ccc4c(c3)[C@H]3[C@H](NC(=O)c5ccc(CN6CCOCC6)c(C(F)(F)F)c5)[C@H]3O4)ccnc2N1 [Compound 1.7] | 9.8 | 54 | 130 | 36 | 16 | 3.5 | 36 |
| CCN1CCN(Cc2ccc(C(=O)N[C@@H]3[C@H]4Oc5ccc(Oc6ccnc(C(=O)NC)c6)cc5[C@@H]34)cc2C(F)(F)F)CC1 [Compound 2.3, 4-(((1S,1aS,6bS)-1-(4-((4-ethylpiperazin-1-yl)methyl)-3-(trifluoromethyl)benzamido)-1a,6b-dihydro-1H-cyclopropa[b]benzofuran-5-yl)oxy)-N-methylpicolinamide] | 7.1 | 22 | – | 52 | 4.7 | 12 | 54 |
| NC1(c2cc(C(=O)N[C@@H]3[C@H]4Oc5ccc(Oc6ccnc7c6CCC(=O)N7)cc5[C@@H]34)cc(C(F)(F)F)c2)CC1 [Compound 1.26, 3-(1-aminocyclopropyl)-N-((1S,1aS,6bS)-5-((7-oxo-5,6,7,8-tetrahydro-1,8-naphthyridin-4-yl)oxy)-1a,6b-dihydro-1H-cyclopropa[b]benzofuran-1-yl)-5-(trifluoromethyl)benzamide] | 1.7 | 9.4 | – | 5.7 | 1.3 | 0.52 | 2.2 |
| CCN1CCN(Cc2ccc(C(=O)N[C@@H]3[C@H]4Oc5ccc(Oc6ccnc7c6CCC(=O)N7)cc5[C@@H]34)cc2C(F)(F)F)CC1 [Compound 1.1, 4-((4-ethylpiperazin-1-yl)methyl)-N-((1S,1aS,6bS)-5-((7-oxo-5,6,7,8-tetrahydro-1,8-naphthyridin-4-yl)oxy)-1a,6b-dihydro-1H-cyclopropa[b]benzofuran-1-yl)-3-(trifluoromethyl)benzamide] | 0.5 | 0.1 | 27 | 9.5 | 0.11 | 0.94 | 5.3 |
| CC(C)(N)c1cc(C(=O)N[C@@H]2[C@H]3Oc4ccc(Oc5ccnc6c5CCC(=O)N6)cc4[C@@H]23)cc(C(F)(F)F)c1 [Compound 1.25, 3-(2-aminopropan-2-yl)-N-((1S,1aS,6bS)-5-((7-oxo-5,6,7,8-tetrahydro-1,8-naphthyridin-4-yl)oxy)-1a,6b-dihydro-1H-cyclopropa[b]benzofuran-1-yl)-5-(trifluoromethyl)benzamide] | 0.48 | 1.2 | 3.4 | 1.4 | 0.15 | 0.25 | 0.71 |
| CCN1CCN(Cc2ccc(C(=O)N[C@@H]3[C@H]4Oc5ccc(Oc6ccnc7c6CCC(=O)N7)cc5[C@@H]34)cc2F)CC1 [Compound 1.4] | 1.4 | 2.3 | 31 | 7.9 | 0.46 | 1.5 | 8.1 |
| CCN1CCN(Cc2cc(C(=O)N[C@@H]3[C@H]4Oc5ccc(Oc6ccnc7c6CCC(=O)N7)cc5[C@@H]34)cc(C(F)(F)F)c2)CC1 [Compound 1.5] | 2.3 | 7.1 | 39 | 15 | 1 | 2.1 | 12 |
